Measurements as given in patent US11266710B2, “Angio-3 for treatment of retinal angiogenic diseases” (SINGAPORE HEALTH SERVICES PTE LTD, priority 2017, dated 2022).

Tested on: laser-induced CNV in C57/BL6J (B6J) wild type mice
Experiment: Laser-induced choroidal neovascularization (CNV) model in mice, area of leakage by FFA
Type: in vivo
Details: for Area of Leakage (mean) Week 1 / Area of Leakage (mean) Week 4: laser-induced CNV mice; for % Reduction (area of leakage): vehicle control = 0%
Procedure: FIG. 3A is a schematic of the experimental design on the efficacy of Angio-3 in a laser-induced choroidal neovascularization (CNV) model in mice (B6J WT mice). FIG. 3B are FFA images of baseline and at different time points post treatment. IV single injection of 100 μL of Angio-3 (25 mg/Kg Bwt) was given at Day 0 (prevention mode) and 4 days after laser (regression mode) and followed for 10 weeks. FIG. 3C is a graph showing the area of leakage by each eye for various groups. FIG. 3D are graphs of the mean area of leakage of all batches for each group. […] The attenuation retinal vascularization was better than scrambled peptide. n=6 eyes per batch; n=3 batches. Values are expressed as means±s.e.m., **P<0.01, *P<0.05, student's t-test. FIG. 3E is a graph of the result of the Retinal Function Test that measures ERG changes in Angio-3 treated and control.
FIG. 4A is a schematic of the experimental design on the efficacy of Angio-3 by IVT administration. […]
FIG. 11 A are FFA images of baseline and at different time points post treatment. Mice received single IVT injection of Angio-3 (at a dose of 1 μg in 1 μl or 100 ng in 1 μl), and chemically modified Angio-3 peptides Pep-N (at doses of 5 μg in μl; 1 μg in μl; and 100 ng in 1 μl, respectively) and Pep-Q peptides (at doses of 5 μg in μl; 1 μg in μl; and 100 ng in 1 μl, respectively). FIG. 11 B is a graph of the area of leakage by each eye. Single dose attenuates retinal angiogenesis in laser-induced mice CNV model via IVT route till 4 weeks. […] Eylea is the positive control. n=18 eyes per group; Values are expressed as means±s.e.m. n=3 independent experiment, **P<0.01, *P<0.05, student's t-test.
Laser induced choridal neo-vascularization (CNV) in C57/BL6J (B6J) wild type mice (n=90).
In B6J mice, single injection of 100 μl volume at 25 mg/kg Bwt concentration Angio-3 was injected via intravenous (i/v) route and this was tested in both Preventive mode (before laser) and Regression mode (4 days after laser). […]
Angio-3 was also injected via intravitreal (IVT) route, single injection of 1 μl volume at 2 different doses; 1 μg (High dose) and 100 ng (Low dose).
4 laser photocoagulation sites were placed concentrically around the optic disc of both eyes to induce CNVs. A diode laser (810 nm) was used with a relative potency scale of 120 mW for mice and 250 mW for rats, an exposure time of 0.05 s, and a spot size of […]. Laser spots were focused with crystal covers to avoid laser beam dispersion. Bubble formation was confirmed the rupture of Bruch's membrane.
Fundus photography and fundus fluorescein angiography (FFA) was imaged using a MICRON IV fundus camera (Phoenix Laboratories USA). For FFA, animals were intraperitoneally injected with 10% sodium fluorescein at a dose of 0.01 ml per 5-6 gm body weight.
In B6J mice, single intravitreous (IVT) injection of 100 ng, 1 μg, 5 μg PEP-Q, PEP-N (modified Angio-3), Angio-3 and Eylea were executed and this was tested in Prevention mode (before laser) Method of Llser induced CNV model and injection was described as above.

[1] = 100 ng single IVT, prevention mode
[2] = 1 μg single IVT, prevention mode
[3] = 5 μg single IVT, prevention mode

Eylea: Eylea (anti-VEGF), positive control; clinical compound [reference compound]
Area of Leakage (mean) Week 1 [1]: 10273.37 | Area of Leakage (mean) Week 4 [1]: 3433.52 | % Reduction (area of leakage) (100 ng single IVT): 28.40% | Area of Leakage (mean) Week 1 [2]: 12502.09 | Area of Leakage (mean) Week 4 [2]: 3005.85 | % Reduction (area of leakage) (1 μg single IVT): 37.77% | Area of Leakage (mean) Week 1 [3]: 11724.39 | Area of Leakage (mean) Week 4 [3]: 1834.08 | % Reduction (area of leakage) (5 μg single IVT): 46.17% | choroidal angiogenesis (B6J mice, single intravitreal injection at dose 100 ng, 1 g, and 5 μg, prevention mode): superior efficacy that is similar to PEP-Q and PEP-N
